Measurements published in US10358454B2, “Marinopyrrole derivatives and methods of making and using same” (H. LEE MOFFITT CANCER CENTER AND RESEARCH INSTITUTE, INC., priority 2014, dated 2019).
Entries after “also recorded” stand apart in the source; their conditions may differ. Like-named read-outs stand apart in the source and are kept apart here.

Tests used:
Mcl-1/Bim = Mcl-1/Bim (Homo sapiens, UniProt Q07820); experiment: Mcl-1/Bim ELISA (GST-Mcl-1 binding to biotinylated Bim BH3 peptide); settings: for selectivity for Mcl-1 over Bcl-xL (Mcl-1/Bim over Bcl-xL/Bim): ratio of ELISA IC50 values
Protocol: (§1) ELISAs were performed using a modified version of a previously described procedure (Doi K et al. J. Biol. Chem. 2012, 287, 10224-10235). Briefly, 40 nM of biotinylated Bim BH3 peptide (Biomatik) in SuperBlock blocking buffer (Pierce) was incubated in high-binding capacity streptavidin-coated plates (Pierce) for 2 h. Compounds were diluted in 120 μl of PBS containing 10 nM of GST-Mcl-1 or GST-Bcl-xL in 1.5 mL tubes for 15 min. Wells were washed with wash buffer (PBS containing 0.05% Tween-20) and then 100 μL of the compound/GST-protein mixture was transferred to the wells. The plates were incubated for 2 h, and then the wells were washed with wash buffer. HRP-conjugated anti-GST antibody (Bethyl Laboratories) was diluted 1:2000 in SuperBlock and 100 μL was transferred to each well. The plate was incubated for 1 h, and then the wells were washed with wash buffer followed by PBS. 100 μL of SureBlue TMB Microwell Peroxidase Substrate (VWR) was added to each well and plates were developed for 5-10 min. 100 μL of 1 N HCl was added to each well to stop the reaction and absorbance was read at 450 nm using a μQuant plate reader (Bio-Tek).
(§2) ELISAs were performed using a similar procedure as previously described (Doi K, et al. J. Biol. Chem. 2012, 287, 10224-10235). Briefly, 40 nM of biotinylated Bim BH3 peptide (Biomatik) in SuperBlock blocking buffer (Pierce) was incubated in high-binding capacity streptavidin-coated plates (Pierce) for 2 h. Compounds were diluted in 120 μl of PBS containing 10 nM of GST-Mcl-1 or GST-Bcl-xL in 1.5 mL tubes for 15 min. Wells were washed with wash buffer (PBS containing 0.05% Tween-20) and then 100 μL of the compound/GST-protein mixture was transferred to the wells. The plates were incubated for 2 h, and then wells were washed with wash buffer. HRP-conjugated anti-GST antibody (Bethyl Laboratories) was diluted 1:2000 in SuperBlock and 100 μL was transferred to each well. The plate was incubated for 1 h, and then wells were washed with wash buffer followed by PBS. 100 μL of SureBlue TMB Microwell Peroxidase Substrate (VWR) was added to each well and plates were developed for 5-10 min. 100 μL of 1 N HCl was added to each well to stop the reaction and absorbance was read at 450 nm using μQuant plate reader (Bio-Tek).

Bcl-xL/Bim = Bcl-xL/Bim (Homo sapiens, UniProt Q07817); experiment: Bcl-xL/Bim ELISA (GST-Bcl-xL binding to biotinylated Bim BH3 peptide)
Protocol: as §1, §2

Mcl-1 [1] = target: T1, Mcl-1 (Homo sapiens, UniProt Q07820); experiment: Fluorescence-quenching (FQ) assay based on intrinsic Trp fluorescence of Mcl-1; assay type: binding; settings: for Kd: binding isotherms, read-out: Kd (binding constant)
Description: To investigate direct binding of compounds to Mcl-1, a fluorescence-quenching (FQ) assay based on the intrinsic Trp fluorescence of Mcl-1 was established.
Target sequence in this assay (Q07820 whole entry): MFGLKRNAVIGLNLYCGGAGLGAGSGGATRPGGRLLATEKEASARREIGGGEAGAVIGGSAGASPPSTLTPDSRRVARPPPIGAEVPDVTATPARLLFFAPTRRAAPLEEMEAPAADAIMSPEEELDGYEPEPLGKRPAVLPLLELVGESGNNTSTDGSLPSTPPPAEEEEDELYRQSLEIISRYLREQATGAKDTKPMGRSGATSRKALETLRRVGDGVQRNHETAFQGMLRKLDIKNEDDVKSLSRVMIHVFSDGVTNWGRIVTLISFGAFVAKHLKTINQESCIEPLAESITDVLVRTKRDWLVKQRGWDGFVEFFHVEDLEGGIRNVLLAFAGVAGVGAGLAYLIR

Mcl-1 [2] = target: T1, Mcl-1; experiment: 15N-HSQC NMR chemical shift perturbation with docking; assay type: binding; design: MBP (cleaved yes); made in house; host or cells: E. coli BL21(DE3) Codon+; settings: HSQC chemical shift changes
Protocol: ^15N-HSQC spectra were recorded on ^15N-labelled Mcl-1 at 0.1 mM prepared in 50 mM potassium phosphate solution at pH 6.5, 50 mM NaCl and 1 mM DTT. Titrations up to 100 μM of 1-21 and 1-18 compounds were performed. NMR spectra were acquired at 25° C. on an Inova 600 MHz spectrometer equipped with a cryoprobe and analyzed in CCPNMR (Vranken W F, et al. Proteins. 2005, 59, 687-696).
NMR-guided docking of 1-21 into the X-ray crystal structure of Mcl-1 (PDB ID: 3KJ0) was performed using Glide (Maestro, Schrodinger) (Friesner R A et al. J. Med. Chem. 2004, 47, 1739-1749; Friesner R A, et al. J. Med. Chem. 2006, 49, 6177-6196; Halgren T A, et al. J. Med. Chem. 2004, 47, 1750-1759; Gavathiotis E, et al. Nat. Chem. Biol. 2012, 8, 639-645). The lowest-energy docking pose is consistent with the observed NMR-chemical shift perturbation data. Pymol is used for preparing the highlighted poses.
Structural characterization of I-20 and II-4 was performed using NMR. HSQC spectra were collected at different ratios of compound:Mcl-1. […] The residues that undergo chemical shift changes upon compounds' binding onto the structure of Mcl-1 and the compounds' binding location were mapped (FIG. 6B). An induced fit molecular docking approach guided by the NMR chemical shifts was used to determine the structural models of the compounds bound to Mcl-1 using Glide software (Schrodinger; FIG. 6C). […]
Target sequence in this assay (Q07820 172-327): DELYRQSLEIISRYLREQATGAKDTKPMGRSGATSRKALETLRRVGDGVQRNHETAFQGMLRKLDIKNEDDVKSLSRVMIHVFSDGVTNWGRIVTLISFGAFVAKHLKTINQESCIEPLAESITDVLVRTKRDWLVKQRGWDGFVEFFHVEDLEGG

[3] = test system: human breast cancer MDA-MB-468 cells; experiment: Western blotting of MDA-MB-468 cells treated with marinopyrrole derivatives (Mcl-1, Bim, caspase 3); assay type: cell-based; settings: 10 μM for 16 h
Protocol: The cells were then processed for western blotting according to a previously described methods (Balasis M E et al. Clin. Cancer Res. 2011, 17, 2852-2862). […] However, none of the cyclic marinopyrroles were active in intact cells.
as §1

Solubility = settings: aqueous solubility
[4] = test system: Bim/Mcl-1 and Bim/Bcl-xL in MDA-MB-468 cancer cells; experiment: Co-immunoprecipitation and densitometry of Bim/Mcl-1 and Bim/Bcl-xL in treated cells; assay type: cell-based, human; settings: compared with 1
MDA-MB-468 cells [5] = experiment: Western blots of MDA-MB-468 cells treated with 1 and I-2 (Bcl-2 family proteins, Caspase 3 and PARP cleavage); assay type: cell-based, human
MDA-MB-468 cells [6] = experiment: MTT assay (anchorage-dependent proliferation); assay type: cell-based, human; settings: 48 hours, compared with 1
[7] = test system: A-549 human lung cancer cells; experiment: MTT assay (anchorage-dependent proliferation); assay type: cell-based; settings: 48 hours, compared with 1
MDA-MB-468 cells [8] = experiment: Soft agar assay (anchorage-independent growth); assay type: cell-based, human; settings: 21 days, compared with 1
[9] = test system: A-549 human lung cancer cells; experiment: Soft agar assay (anchorage-independent growth); assay type: cell-based; settings: 21 days, compared with 1
A-549 xenografts = A-549 xenografts in nude mice; assay type: in vivo; settings: 4 mpk/day for 14 days
[10] = test system: cultured human cancer cells; experiment: Induction of apoptosis in cultured human cancer cells; assay type: cell-based; settings: intact cell studies
[11] = Stability in 1 M NaOH at room temperature, HPLC analysis; settings: for remained intact: after 48 hours
[12] = pKa and log p calculated using ChemAxon Software Version 5.12.3; settings: difference to phenol pKa […]
Protocol: Both pKa and log p values were calculated using ChemAxon Software Version 5.12.3 (Dixon S L and Jurs P C. J. Comp. Chem. 1993, 14, 1460-1467; Csizmadia F et al. J. Pharm. Sci. 1997, 86, 865-871).

[13] = Table 2-A, n ≥ 3, read-out: Mcl-1/Bim IC50 (average ± SEM)
[14] = read-out: IC50 to inhibit the binding of Mcl-1 to Bim
[15] = Table 2-A, n ≥ 3, read-out: Bcl-xL/Bim IC50 (average ± SEM)
[16] = Table 3-A structure I, Mcl-1 at 10 nM, n ≥ 3, read-out: Mcl-1-Bim IC50 (average ± SEM)
[17] = Table 3-A structure I, Bcl-xL at 10 nM, n ≥ 3, read-out: Bcl-xL-Bim IC50 (average ± SEM)
[18] = Table 2-B, n ≥ 3, read-out: Mcl-1/Bim IC50 (average ± SEM)
[19] = Table 2-B, n ≥ 3 unless specified, read-out: Bcl-xL/Bim IC50 (average ± SEM)

Bcl-xL/Bim, sequence (Q07817 whole entry): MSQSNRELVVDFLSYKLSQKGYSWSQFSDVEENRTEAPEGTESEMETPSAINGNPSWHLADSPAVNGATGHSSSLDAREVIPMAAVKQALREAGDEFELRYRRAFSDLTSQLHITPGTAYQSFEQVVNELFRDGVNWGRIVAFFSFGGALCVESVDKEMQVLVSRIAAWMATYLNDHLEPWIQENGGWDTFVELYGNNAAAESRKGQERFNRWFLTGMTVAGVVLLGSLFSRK
Mcl-1/Bim, sequence (Q07820 whole entry): as the sequence (Q07820 whole entry) above

Row | Compound | IC50 (Mcl-1/Bim; [13]) [µM] | selectivity for Mcl-1 over Bcl-xL (Mcl-1/Bim over Bcl-xL/Bim) (Mcl-1/Bim) [fold] | IC50 (Mcl-1/Bim; [14]) [µM] | activity against Bcl-xL/Bim in words (Bcl-xL/Bim) | IC50 (Bcl-xL/Bim; [15]) [µM] | direct binding to Mcl-1 by fluorescence quenching (Mcl-1 [1]) | Kd (Mcl-1 [1]) [µM] | IC50 (Mcl-1/Bim; [16]) [µM] | IC50 (Bcl-xL/Bim; [17]) [µM] | effect on levels of Mcl-1 and Bim and cleavage of caspase 3 [3] | solubility in words (Solubility) | IC50 (Mcl-1/Bim; [18]) [µM] | IC50 (Bcl-xL/Bim; [19]) [µM] | remained intact [11] [%] | other results
1 | O=C(O)Cn1cc(-c2cc(O)c(C(=O)c3[nH]c(Cl)c(Cl)c3-n3c(C(=O)c4cc(Cl)c(-c5cn(CC(=O)O)nn5)cc4O)cc(Cl)c3Cl)cc2Cl)nn1 [Compound 1-19, 2,2′-(4,4′-((4,4′,5,5′-Tetrachloro-1′H-1,3′-bipyrrole-2,2′-dicarbonyl)bis(2-chloro-5-hydroxy-4,1-phenylene))bis(1H-1,2,3-triazole-4,1-diyl))diacetic acid] | 5.2 ± 0.8 | 9.6 | 5.2 | not active | > 50 | directly bind to Mcl-1 | 2.5 | – | – | – | – | – | – | – | IC50 (Mcl-1/Bim; Table 3-B structure II, n ≥ 3, read-out: Mcl-1-Bim IC50 (average ± SEM)): 5.2 ± 0.8 µM; IC50 (Bcl-xL/Bim; Table 3-B structure II, n ≥ 3, read-out: Bcl-xL-Bim IC50 (average ± SEM)): > 50 µM; binding to Mcl-1 by NMR (Mcl-1 [2]; listed as II-4): binding to the BH3 pocket of Mcl-1; also recorded: confirmed binding to Mcl-1
2 | O=C(c1ccc(P(=O)(O)O)cc1O)c1[nH]c(Cl)c(Cl)c1-n1c(C(=O)c2ccc(P(=O)(O)O)cc2O)cc(Cl)c1Cl [Compound I-20, ((4,4′,5,5′-Tetrachloro-1′H-[1,3′-bipyrrole]-2,2′-dicarbonyl)bis(3-hydroxy-4,1-phenylene))diphosphonic acid] | – | – | – | less active | – | directly bind to Mcl-1 | 3.5 | 10.9 ± 3.1 | 27.3 ± 7.2 | little effect on Mcl-1, Bim or caspase 3 | improvement in aqueous solubility | – | – | – | activity against Mcl-1/Bim in words (Mcl-1/Bim; listed as 8a): slightly less potent than 1; also recorded: less active; binding to Mcl-1 by NMR (Mcl-1 [2]): binding to the BH3 pocket of Mcl-1; also recorded: confirmed binding to Mcl-1
3 | C#Cc1ccc(C(=O)c2[nH]c(Cl)c(Cl)c2-n2c(C(=O)c3ccc(C#C)cc3O)cc(Cl)c2Cl)c(O)c1 [Compound 1-3, (4,4′,5,5′-Tetrachloro-1′H-1,3′-bipyrrole-2,2′-diyl)bis((4-ethynyl-2-hydroxyphenyl)methanone)] | – | – | 3.7 | more potent than 1 | – | – | – | 3.9 ± 0.2 | 5.6 ± 0.5 | – | – | 3.9 ± 0.2 | 5.6 ± 0.5 | 81 | activity against Mcl-1/Bim in words (Mcl-1/Bim): more potent than 1; selectivity profile Mcl-1 vs Bcl-xL in words (Mcl-1/Bim; from Mcl-1/Bim and Bcl-xL/Bim ELISA): dual Mcl-1 and Bcl-XL antagonists; inhibition of binding of Mcl-1 and Bcl-xL to Bim in cells [4]: more potent than 1; effect on Bcl-2 and Bax levels (MDA-MB-468 cells [5]): little effects; effect on Bim level (MDA-MB-468 cells [5]): slightly decreased; decreasing levels of Mcl-1 and Bcl-xL and increasing levels of Bak and Bad (MDA-MB-468 cells [5]; compared with 1): more potent than 1; inducing apoptosis (Caspase 3 and PARP cleavage) (MDA-MB-468 cells [5]; compared with 1): more potent than 1; inhibiting anchorage-dependent proliferation (MTT) (MDA-MB-468 cells [6]): more potent than 1; inhibiting anchorage-dependent proliferation (MTT) [7]: more potent than 1; inhibiting anchorage-independent proliferation (soft agar) (MDA-MB-468 cells [8]): more potent than 1; inhibiting anchorage-independent proliferation (soft agar) [9]: more potent than 1; effect on the body weights of the mice (A-549 xenografts): little effect; increase of tumor volumes from day 1 to day 14 (A-549 xenografts; vehicle-treated mice 160±10%): 45±30%; induction of apoptosis [10]: induced apoptosis
4 | O=C(c1ccccc1O)c1[nH]c(Cl)c(Cl)c1-n1c(C(=O)c2ccccc2O)cc(Cl)c1Cl (racemic) [(±)-1, (±)-marinopyrrole A, reference compound] | 8.9 ± 1 | 1.8 | 8.9 | – | 16.4 ± 3.3 | – | – | 8.9 ± 1 | 16.4 ± 3.3 | able to decrease Mcl-1 and Bim and to cleave caspas 3 | poor solubility | 8.9 ± 1 | 16.4 ± 3.3 | 76 | IC50 (Mcl-1/Bim; Table 1, Mcl-1 at 10 nM, n ≥ 3, read-out: Mcl-1-Bim IC50 (average ± SEM)): 8.9 ± 1 µM; selectivity for Mcl-1 over Bcl-xL (Mcl-1/Bim over Bcl-xL/Bim) (Mcl-1/Bim; listed as marinopyrrole A): two fold; IC50 (Bcl-xL/Bim; Table 1, Bcl-xL at 10 nM, n ≥ 3, read-out: Bcl-xL-Bim IC50 (average ± SEM)): 16.4 ± 3.3 µM; IC50 (Bcl-xL/Bim; read-out: IC50 to inhibit Bcl-xL/Bim binding): 16.4 µM; stability in words ([11]; 1 to 48 hours): highly stable; pKa values lower than that of phenol [12]: 1.6-2.2 log units
